Results: patent US20040047894A1, “Preparation for improved dietary utilisation” (priority 2001, published 2004)

Experiments:
[1] = system: ICR mice; settings: 1.0% calendic acid (ethyl ester) in feed, six weeks
Protocol: 5-6-week-old male and female ICR mice were obtained from Charles River. 18 animals (9 m/w) were randomly assigned to each experimental group. The animals were raised in groups of 3 animals at 20° C. in a 12-hour light/dark cycle. […] It comprised the following components: sucrose, casein, corn starch, DL-methionin, 5.5% of a mixture of vegetable oils (so that the feed comprised 0.6% linolenic acid and 3% linoleic acid of the total lipids), mineral and vitamin mix and Ethoxyquin (0.1 g/kg). In the experimental feed, the amount of vegetable oils was replaced by the corresponding amount of calendic acid. Calendic acid was present here as the ethyl ester and was obtained from calendula oil (BiRo, Sommerschenburg, Germany).
After a one-week adaptation period on control feed, a six-week experiment was carried out. Body weight and feed intake were measured weekly. At the end of the study the animals were killed and viscera and organs such as liver, heart and lungs were removed. The empty carcasses were frozen in liquid nitrogen, homogenized, and the contents of fat, protein and ash were determined by standard methods.

[2] = system: ICR mice; assay: Four-week feeding experiment: bodyweight, feed intake and feed utilization; format: in vivo; settings: four weeks

SMILES: CCCCC\C=C/C=C/C=C/CCCCCCC(=O)O [Calendic acid, calendic acid]
- changes in body weight versus control group ([1]; ICR mice): comparable
- fat content in the experimental animals ([1]; ICR mice, effect greater in male than in female animals): significantly decreased the fat content
- Body fat content (in % of body composition), female animals ([1]; female ICR mice, control 10.3% fat): 9.5% fat
- Body fat content (in % of body composition), male animals ([1]; male ICR mice, control 12.2% fat): 8.0% fat
- feed intake, male animals ([2]; male ICR mice, calendula oil 0.5-2.0% in feed): dose-dependent effect towards reduced feed intake
- feed utilization, male animals ([2]; male ICR mice, calendula oil 0.5-2.0% in feed, dose-dependent, FIG. 3): significantly improved
- weight gain ([2]; male and female ICR mice, calendula oil 0.5-2.0% in feed, FIG. 1): without affecting weight gain
- feed intake ([2]; male and female ICR mice, corn oil in feed replaced by crude calendula oil 0.5, 1.0 or 2.0% (approx. 62% calendic acid as triglyceride), FIG. 2): reduced feed intake
